# According to patent publication US11518760B2 (Liverpool School of Tropical Medicine, priority 2017, dated 2022):
# Tested on: C6/36 Aedes albopictus cell line infected with Wolbachia pipientis (Wolbachia strain wAlbB)
# Experiment: In vitro insect cell line assay (anti-Wolbachia screen, SYTO 11 high content imaging)
# Format: cell-based
# Conditions: 168 h; C6/36 Aedes albopictus cells infected with Wolbachia pipientis wAlbB, 7 days incubation, SYTO 11 imaging; read-out: In vitro anti-Wolbachia activity
# Protocol: A C6/36 Aedes albopictus cell line infected with Wolbachia pipientis (Wolbachia strain wAlbB) derived from Aa23 A. albopictus cell line (O'Neill et al., 1997; Insect Mol Biol; Turner et al., (2006) J. Immunol. 7:1240-1249) was used to screen compounds. Cells were cultured in Leibovitz's L15+L-glutamine supplemented with heat-inactivated Foetal Calf Serum (HI-FCS), non-essential amino acids and tryptose phosphate broth. Culture medium was filter-sterilized through a 0.2 μm filter and stored at 4° C. Compounds were provided as 10 mM stocks in DMSO, diluted to 50 μM working stock to give final concentration of 5 μM on the test plate. Concentrated stocks were frozen at −20° C.
# Prior to use in the screening assay, cell cultures were sub-passaged (6 days prior) to provide ˜90% confluent cells on Day 0 of screening assay. On Day 0 (assay set-up), the medium was removed from the stock culture flask and replaced with fresh medium. The cells were detached by scraping and cell density was calculated using an automated cell counter. The cells were then diluted at working density and aliquoted at 90 μl to each well of a Cell Carrier 384 well plate (Perkin Elmer). Cell plates were incubated at 26° C.
# Control solution (DMSO-medium) was dispensed at 10 μl per well for “untreated” wells. Test solution (Drug-DMSO) was also dispensed at 10 μl (from working plate) per well for “treated” wells. The plates were incubated at 26° C., inside plastic wallet in incubator, for 7 days.
# On Day 7, 25 μl of staining medium/dye (SYTO 11, Life Technologies) was added to each sample well and allowed to stain for 15 minutes in the dark. All the medium was removed from each sample well without disturbing the cells and replaced with 100 μl of fresh medium. Plates were imaged on the Operetta High Content Imaging system (Perkin Elmer) and analyzed using texture analysis through Harmony software (Perkin Elmer). The cell-based screen and analysis are described in detail in Clare et al. (2014) J Biomol Screen.
structure (smiles),measurement,value
"CN(Cc1ccccc1C(F)(F)F)c1nc(Cl)nc2ccsc12 [Example 49, 2-chloro-N-methyl-N-(2-(trifluoromethyl)benzyl)thieno[3,2-d]pyrimidin-4-amine]",EC50,1 to 10 nM
"CC(C)Nc1nc(N(C)Cc2ccccc2C(F)(F)F)c2sccc2n1 [Example 50, N^2-isopropyl-N^4-methyl-N^4-(2-(trifluoromethyl)benzyl)thieno[3,2-d]pyrimidine-2,4-diamine]",EC50,10 to 100 nM
"COc1cccc(CNc2ncnc3ccsc23)c1C(F)(F)F [Example 51, N-(3-methoxy-2-(trifluoromethyl)benzyl)thieno[3,2-d]pyrimidin-4-amine]",EC50,10 to 100 nM
"CC(Nc1nc(Cl)nc2ccsc12)c1ccccc1C(F)(F)F (stereo not shown) [Example 52, 2-chloro-N-(1-(2-(trifluoromethyl)phenyl)ethyl)thieno[3,2-d]pyrimidin-4-amine]",EC50,10 to 100 nM
"CC(C)Nc1nc(NC(C)c2ccccc2C(F)(F)F)c2sccc2n1 (stereo not shown) [Example 53, N^2-isopropyl-N^4-(1-(2-(trifluoromethyl)phenyl)ethyl)thieno[3,2-d]pyrimidine-2,4-diamine]",EC50,1 to 10 nM
"CCN(Cc1ccccc1C(F)(F)F)c1ncnc2ccsc12 [Example 54, N-ethyl-N-(2-(trifluoromethyl)benzyl)thieno[3,2-d]pyrimidin-4-amine]",EC50,1 to 10 nM
"Cc1nc(NCc2ccccc2C(F)(F)F)c2sccc2n1 [Example 55, 2-methyl-N-(2-(trifluoromethyl)benzyl)thieno[3,2-d]pyrimidin-4-amine]",EC50,10 to 100 nM
"FC(F)(F)c1nc(NCc2ccccc2C(F)(F)F)c2sccc2n1 [Example 56, 2-(trifluoromethyl)-N-(2-(trifluoromethyl)benzyl)thieno(3,2-d]pyrimidin-4-amine]",EC50,10 to 100 nM
"FC(F)(F)c1ccccc1CNc1nc(Cl)nc2ccccc12 [Example 57, 2-chloro-N-(2-(trifluoromethyl)benzyl)quinazolin-4-amine]",EC50,10 to 100 nM
"CC(C)Nc1nc(NCc2ccccc2C(F)(F)F)c2ccccc2n1 [Example 58, N^2-isopropyl-N^4-(2-(trifluoromethyl)benzyl)quinazoline-2,4-diamine]",EC50,100 to 1000 nM
"CC(C)Nc1nc(Nc2ccccc2C(F)(F)F)c2sccc2n1 [Example 59, N^2-isopropyl-N^4-(2-(trifluoromethyl)phenyl)thieno[3,2-d]pyrimidin-2,4-amine]",EC50,100 to 1000 nM
"Fc1ccc(CNc2ncnc3ccsc23)c(C(F)(F)F)c1 [Example 60, N-(4-fluoro-2-(trifluoromethyl)benzyl)thieno[3,2-d]pyrimidin-4-amine]",EC50,10 to 100 nM
"FC(F)(F)c1cccnc1CNc1ncnc2ccsc12 [Example 61, N-((3-(trifluoromethyl)pyridin-2-yl)methyl)thieno[3,2-d]pyrimidin-4-amine]",EC50,1000 to 100000 nM
"CN(Cc1ccccc1C(F)(F)F)c1nc(C(F)(F)F)nc2ccsc12 [Example 62, N-methyl-2-(trifluoromethyl)-N-(2-(trifluoromethyl)benzyl)thieno[3,2-d]pyrimidin-4-amine]",EC50,10 to 100 nM
"Cc1nc(N(C)Cc2ccccc2C(F)(F)F)c2sccc2n1 [Example 63, N,2-dimethyl-N-(2-(trifluoromethyl)benzyl)thieno[3,2-d]pyrimidin-4-amine]",EC50,10 to 100 nM
"Cc1nc(NC(C)c2ccccc2C(F)(F)F)c2sccc2n1 (stereo not shown) [Example 65, 2-methyl-N-(1-(2-(trifluoromethyl)phenyl)ethyl)thieno[3,2-d]pyrimidin-4-amine]",EC50,10 to 100 nM
"Cc1nc(N(C)C(C)c2ccccc2C(F)(F)F)c2sccc2n1 (stereo not shown) [Example 66, N,2-dimethyl-N-(1-(2-(trifluoromethyl)phenyl)ethyl)thieno[3,2-d]pyrimidin-4-amine]",EC50,1 to 10 nM
"CC(c1ccccc1C(F)(F)F)N(C)c1nc(Cl)nc2ccsc12 (stereo not shown) [Example 67, 2-chloro-N-methyl-N-(1-(2-(trifluoromethyl)phenyl)ethyl)thieno[3,2-d]pyrimidin-4-amine]",EC50,100 to 1000 nM
"COc1nc(N(C)C(C)c2ccccc2C(F)(F)F)c2sccc2n1 (stereo not shown) [Example 68, 2-methoxy-N-methyl-N-(1-(2-(trifluoromethyl)phenyl)ethyl)thieno[3,2-d]pyrimidin-4-amine]",EC50,10 to 100 nM
"Cc1nc(N(C)C(C)c2ccccc2C(F)(F)F)c2sc(C)cc2n1 (stereo not shown) [Example 69, N,2,6-trimethyl-N-(1-(2-(trifluoromethyl)phenyl)ethyl)thieno[3,2-d]pyrimidin-4-amine]",EC50,1000 to 100000 nM
"Cc1nc(N(C)C(C)c2ccccc2C(F)(F)F)c2sc(C(C)(C)O)cc2n1 (stereo not shown) [Example 70, 2-(2-methyl-4-(methyl(1-(2-(trifluoromethyl)phenyl)ethyl)amino)thieno[3,2-d]pyrimidin-6-yl)propan-2-ol]",EC50,1000 to 100000 nM
[2H]c1cc2nc(C)nc(N(C)C(C)c3ccccc3C(F)(F)F)c2s1 (stereo not shown) [Example 71],EC50,10 to 100 nM
"Fc1ccc(CNc2ncnc3ccccc23)c(C(F)(F)F)c1 [Example 72, N-(4-fluoro-2-(trifluoromethyl)benzyl)quinazolin-4-amine]",EC50,10 to 100 nM
"Cc1nc(NCc2ccc(F)cc2C(F)(F)F)c2ccccc2n1 [Example 73, N-(4-fluoro-2-(trifluoromethyl)benzyl)-2-methylquinazolin-4-amine]",EC50,100 to 1000 nM
"CC(c1ccccc1C(F)(F)F)N(C)c1nc(C#N)nc2ccsc12 (stereo not shown) [Example 74, 4-(methyl(1-(2-(trifluoromethyl)phenyl)ethyl)amino)thieno[3,2-d]pyrimidine-2-carbonitrile]",EC50,1000 to 100000 nM
"CN(Cc1ccc(F)cc1C(F)(F)F)c1ncnc2ccccc12 [Example 75, N-(4-fluoro-2-(trifluoromethyl)benzyl)-N-methylquinazolin-4-amine]",EC50,100 to 1000 nM
Cc1nc(N(C)C(C)c2ccccc2C(F)(F)F)c2sc(C3(O)COC3)cc2n1 (stereo not shown) [Example 76],EC50,1000 to 100000 nM
Cc1nc(N(C)C(C)c2ccccc2C(F)(F)F)c2sc(C=O)cc2n1 (stereo not shown) [Example 77],EC50,100 to 1000 nM
CC(C)(C)Nc1ncnc2ccsc12 [Example 78],EC50,1000 to 100000 nM
FC(F)(F)c1ccccc1C1CCCN1c1ncnc2ccsc12 (stereo not shown) [Example 79],EC50,100 to 1000 nM
N#Cc1nc(NCc2ccccc2C(F)(F)F)c2sccc2n1 [Example 80],EC50,10 to 100 nM
FC(F)(F)c1cccc(CNc2ncnc3ccsc23)c1 [Example 81],EC50,1000 to 100000 nM
FC(F)(F)c1ccncc1CNc1ncnc2ccsc12 [Example 82],EC50,1000 to 100000 nM
FC(F)(F)c1cccc2c1CN(c1ncnc3ccsc13)C2 [Example 83],EC50,1000 to 100000 nM
CC(O)c1nc(NCc2ccccc2C(F)(F)F)c2sccc2n1 (stereo not shown) [Example 84],EC50,1000 to 100000 nM
CC(C)(C)N(Cc1ccccc1C(F)(F)F)c1ncnc2ccsc12 [Example 85],EC50,100 to 1000 nM
CC(C)(O)c1nc(NCc2ccccc2C(F)(F)F)c2sccc2n1 [Example 86],EC50,1000 to 100000 nM
CC(=O)c1nc(NCc2ccccc2C(F)(F)F)c2sccc2n1 [Example 87],EC50,100 to 1000 nM
"O=C1CCCN1CCCNc1nc(NCc2ccccc2C(F)(F)F)c2sccc2n1 [Example 88, 1-(3-((4-((2-(trifluoromethyl)benzyl)amino)thieno[3,2-d]pyrimidin-2-yl)amino)propyl)pyrrolidin-2-one]",EC50,1000 to 100000 nM
"CN(C)CCNc1nc(NCc2ccccc2C(F)(F)F)c2sccc2n1 [Example 89, N^2-(2-(dimethylamino)ethyl)-N^4-(2-(trifluoromethyl)benzyl)thieno[3,2-d]pyrimidine-2,4-diamine]",EC50,1000 to 100000 nM
"FC(F)(F)c1ccccc1CNc1nc(NCCN2CCOCC2)nc2ccsc12 [Example 90, N^2-(2-morpholinoethyl)-N^4-(2-(trifluoromethyl)benzyl)thieno[3,2-d]pyrimidine-2,4-diamine]",EC50,1000 to 100000 nM
"FC(F)(F)c1ccccc1CNc1nc(NCCN2CCCC2)nc2ccsc12 [Example 91, N^2-(2-(pyrrolidin-1-yl)ethyl)-N^4-(2-(trifluoromethyl)benzyl)thieno[3,2-d]pyrimidine-2,4-diamine]",EC50,1000 to 100000 nM
"CN1CCN(CCNc2nc(NCc3ccccc3C(F)(F)F)c3sccc3n2)CC1 [Example 92, N^2-(2-(4-methyipiperazin-1-yl)ethyl)-N^4-(2-(trifluoromethyl)benzyl)thieno[3,2-d]pyrimidine-2,4-diamine]",EC50,1000 to 100000 nM
"FC(F)(F)c1ccccc1CNc1nc(N2CCCC2)nc2ccsc12 [Example 93, 2-(pyrrolidin-1-yl)-N-(2-(trifluoromethyl)benzyl)thieno[3,2-d]pyrimidin-4-amine]",EC50,100 to 1000 nM
"FC(F)(F)c1ccccc1CNc1nc(N2CCOCC2)nc2ccsc12 [Example 94, 2-morpholino-N-(2-(trifluoromethyl)benzyl)thieno[3,2-d]pyrimidin-4-amine]",EC50,1000 to 100000 nM
"CN1CCN(c2nc(NCc3ccccc3C(F)(F)F)c3sccc3n2)CC1 [Example 95, 2-(4-methylpiperazin-1-yl)-N-(2-(trifluoromethyl)benzyl)thieno[3,2-d]pyrimidin-4-amine]",EC50,1000 to 100000 nM
